Measured values from patent US11932606B2, “Anti-cancer/anti-fibrosis compounds” (THE REGENTS OF THE UNIVERSITY OF CALIFORNIA, priority 2017, dated 2024).
pIC50: −log10 of the molar value. Like-named read-outs stand apart in the source and are kept apart here.

Columns and labels:
[1] = system: colorectal cancer cell line SW620; assay: Synergy experiment of Compound 29 and 2DG, cell viability; type: cell-based
Method: SW620 cells were plated (96-well) in triplicate at 500 cells per well for testing (n=3) with 5 mM 2-DG and different concentrations of compound 29 (0-10 uM). Medium was changed once on day 3. On day 7, the CellTiter-Glo Luminescent Cell Viability Assay (Promega) was performed to measure the response. For cell viability assay, two independent experiments have been done.

MOLM-14 xenograft tumors = assay: Western analysis / pharmacodynamics of MOLM-14 xenograft tumors; type: in vivo, mouse
Method: For tissue: Tissue was homogenized and protein was extracted using T-per Mammalian protein extraction reagent (78510, Thermo Fisher Scientific). In the pharmacodynamics study, mice bearing tumors were treated with vehicle, 10 mg/kg, 50 mg/kg and 100 mg/kg for 6 hrs. After 6 hrs of treatment, tumors were removed for further procedure.
Proteins were separated on SDS-PAGE and transferred to nitrocellulose membrane. Immunoblotting were performed using specific antibodies: phosphor-Stat1-pS727 (8826, Cell signaling), total-Stat1 (14994, Cell signaling), Phospho-Stat3 (Tyr705) (9131, Cell signaling), Stat3 (9139, Cell signaling), pSTAT5-pS726 (ab128896, abcam), stat5 (94205, cell signaling), YAP (14074, Cell signaling), CYR61(14479, Cell signaling), CTGF (ab6992, Abcam), c-Myc (13987, Cell signaling), Mcl-1 (94296, Cell signaling) and GAPDH (AM4300, Invitrogen). (FIG. 1A, FIG. 1B, FIG. 1C). MV-4-11 cancer cell line was treated with compound 29 at various concentrations (30 nM up to 10 μM) for 24 hours and 48 hours, respectively.
Tumors from the MOLM-14 xenograft study were collected and processed for western analysis. In the western results showing above, the level of p-STAT1 (Ser727) in the three mice samples from the treated group were much lower compared to that in the three mice samples from the control group.

SET-2 = assay: AML cell viability (CellTiter-Glo, day 7); type: cell-based; details: Homo sapiens
CSNK2A1 (CK2 alpha 1) = CSNK2A1 (CK2 alpha 1) (Homo sapiens (Human), UniProt P68400); assay: CK2 alpha 1 enzymatic activity inhibition (Z'-LYTE); type: biochemical; details: read-out: CK2a IC50
Method: CK2 Alpha 1 Enzymatic Activity Inhibition: Determination of IC50 Values for Selected Compounds
The half maximal inhibitory concentration (IC50) with respect to CK2 alpha 1 inhibition was determined for the compounds of the invention by using Z′-LYTE™ from ThermoFisher Scientific's SelectScreen™ Biochemical Kinase Profiling Service (Waltham, MA). Compounds were screened in 1% DMSO (final) in the well. For 10 point titrations, 3-fold serial dilutions were conducted from the starting concentration. The 2×CSNK2A1 (CK2 alpha 1)/Ser/Thr 11 mixture is prepared in 50 mM HEPES pH 7.5, 0.01% BRIJ-35, 10 mM MgCl2, 1 mM EGTA. The black 384-well plate (Corning Cat. #4514) were used for the assay. 100 nL of 100× test compound in 100% DMSO, 2.4 uL of kinase buffer (50 mM HEPES pH 7.5, 0.01% BRIJ-35, 10 mM MgCl2, 1 mM EGTA), 5 uL of 2×CSNK2A1 (CK2 alpha 1)/Ser/Thr 11 mixture, and 2.5 uL of 4×ATP solution were mixed and agitated for 30 seconds. Then the Kinase Reaction was incubated at room temperature for 60 minutes. The final 10 uL Kinase Reaction consisted of 0.68-25.7 ng CSNK2A1 (CK2 alpha 1) and 2 μM Ser/Thr 11 in 50 mM HEPES pH 7.5, 0.01% BRIJ-35, 10 mM MgCl2, 1 mM EGTA. After the 1 hour Kinase Reaction incubation, 5 uL of a 1:16 dilution of Development Reagent B is added. After 30 second of plate shake, the reaction plate was incubated for another 60 min at room temperature. Then the plate was read on a fluorescence plate reader (CLARIOstar, BMG Labtech, Germany) and data was analyzed using XLfit from IDBS. The dose response curve was curve fit to model number 205 (sigmoidal dose-response model).

MV-4-11 xenograft = assay: MV-4-11 mouse xenograft model; type: in vivo; details: 50 mg/kg orally b.i.d., 21 days
Method: 40 CR female NCr nu/nu mice (Charles River Laboratories) were injected with 1×10^7 MV-4-11 cells in 50% matrigel s.c. in flank. Cell Injection Volume is 0.1 mL/mouse for MV-4-11 cells. Age of mice at start date is 8 to 12 weeks. Perform a pair match when tumors grow after two weeks and begin treatment. Compound 29 was given orally twice a day for 21 consecutive days. Body weight and tumor size were measured every three days. In the MV-4-11 xenograft model, mice were treated with compound 29 with 50 mg/kg for 21 days (orally, b.i.d). The tumor volume from control and vehicle group were measured, compared. […] Body weights of mice in both groups were measured and plotted.

CDK8/cyclinC = CDK8/cyclinC (Homo sapiens (Human), UniProt P49336); assay: CDK8 LanthaScreen Eu kinase binding assay; details: read-out: IC50 against CDK8
Method: CDK8 Enzymatic Activity Inhibition: Determination of IC50 Values for Selected Compounds
The half maximal inhibitory concentration (IC50) with respect to CDK8 inhibition was determined for the compounds of the invention by using LanthaScreen™ Eu kinase binding assay from ThermoFisher Scientific's SelectScreen™ Biochemical Kinase Profiling Service (Waltham, MA). Compounds were screened in 1% DMSO (final) in the well. For 10 point titrations, 3-fold serial dilutions were conducted from the starting concentration.
The 2×CDK8/cyclinC/Eu-anti-His mixture is prepared in kinase buffer A (50 mM HEPES pH 7.5, 0.01% BRIJ-35, 10 mM MgCl2, 1 mM EGTA). The Bar-coded, low volume, white 384-well plate (Greiner Cat. #784207) were used for the assay. 160 nL of 100× test compound in 100% DMSO, 3.84 uL of kinase buffer A, 8 uL of 2×CDK8/cyclinC/Eu-anti-His mixture, and 4 uL of 4× tracer 236 were mixed and shaked for 30 seconds. Then the Kinase Reaction was incubated at room temperature for 60 minutes. After the 1 hour Kinase Reaction incubation, the plate was read on a fluorescence plate reader (Infinite F500, Tecan Systems Inc, USA), and data was analyzed using XLfit from IDBS. The dose response curve was curve fit to model number 205 (sigmoidal dose-response model).

[2] = system: MOLM-14 AML cancer cell line; assay: Western blot of treated cells; type: cell-based; details: MOLM-14, 30 nM up to 3 μM, 24 hours and 48 hours
[3] = tumors from MOLM-14 xenograft study, Western

CDK8/cyclinC, sequence (P49336 whole entry): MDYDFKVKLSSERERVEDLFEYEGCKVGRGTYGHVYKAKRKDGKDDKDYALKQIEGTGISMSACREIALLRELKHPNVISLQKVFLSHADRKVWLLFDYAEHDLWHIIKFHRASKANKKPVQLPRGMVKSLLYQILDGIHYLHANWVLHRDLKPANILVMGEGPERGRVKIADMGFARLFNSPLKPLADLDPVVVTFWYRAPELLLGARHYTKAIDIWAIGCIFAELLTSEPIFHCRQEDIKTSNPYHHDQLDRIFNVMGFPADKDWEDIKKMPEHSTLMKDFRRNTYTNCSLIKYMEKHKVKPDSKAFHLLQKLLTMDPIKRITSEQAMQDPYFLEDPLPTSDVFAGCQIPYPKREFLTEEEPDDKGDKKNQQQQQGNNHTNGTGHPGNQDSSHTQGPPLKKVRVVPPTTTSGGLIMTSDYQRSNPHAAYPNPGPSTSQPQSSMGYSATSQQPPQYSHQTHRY
CDK8/cyclinC, sequence (P24863 whole entry partner): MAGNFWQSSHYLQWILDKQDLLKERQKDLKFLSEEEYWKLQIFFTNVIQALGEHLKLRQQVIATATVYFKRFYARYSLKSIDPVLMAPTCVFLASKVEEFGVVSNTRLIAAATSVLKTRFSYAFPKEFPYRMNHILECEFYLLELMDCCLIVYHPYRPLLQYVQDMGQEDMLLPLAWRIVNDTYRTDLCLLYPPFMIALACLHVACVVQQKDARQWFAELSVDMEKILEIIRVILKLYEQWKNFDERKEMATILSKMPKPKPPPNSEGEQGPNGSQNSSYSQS
CSNK2A1 (CK2 alpha 1), sequence (P68400 whole entry): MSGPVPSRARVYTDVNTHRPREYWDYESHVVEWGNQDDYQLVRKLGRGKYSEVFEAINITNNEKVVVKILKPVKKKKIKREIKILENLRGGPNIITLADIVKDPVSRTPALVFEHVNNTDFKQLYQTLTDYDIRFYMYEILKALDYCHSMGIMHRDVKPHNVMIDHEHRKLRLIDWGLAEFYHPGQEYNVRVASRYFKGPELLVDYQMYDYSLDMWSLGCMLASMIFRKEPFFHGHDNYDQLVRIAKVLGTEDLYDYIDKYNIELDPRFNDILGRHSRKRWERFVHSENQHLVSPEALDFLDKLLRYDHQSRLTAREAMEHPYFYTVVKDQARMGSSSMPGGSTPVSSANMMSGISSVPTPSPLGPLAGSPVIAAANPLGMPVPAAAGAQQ

In the case of `Nc1nccc2c(Br)cc3cc(C(=O)[O-])ccc3c12.[Na+]` [Compound 29, Sodium 1-amino-5-bromobenzo[h]isoquinoline-8-carboxylate], the pIC50 ([1]; Homo sapiens, SW-620, 168 h, SW620, without 2DG, day 7, read-out: Cell viability IC50 of Compound 29 alone) was 5.00 to 6.00, the “Synergy with 2DG in viability assay” value ([1]; SW620, 5 mM 2DG) was “synergizes with 2DG” and the “p-STAT1 (Ser727) in tumors, pharmacodynamics study” value (MOLM-14 xenograft tumors; 10 mg/kg, 50 mg/kg and 100 mg/kg, 6 hrs) was “a dose response (10 mg/kg, 50 mg/kg and 100 mg/kg) of down regulation”. The “level of p-STAT1 (Ser727) in tumors vs control group” value (MOLM-14 xenograft tumors; [3]) was “much lower”, the “level of p-STAT5(Ser726) in tumors vs control group” value (MOLM-14 xenograft tumors; [3]) was “lower level” and the pIC50 (SET-2; 168 h, SET-2, day 7, read-out: Cell viability IC50) was over 6.00. For the same molecule, the pIC50 (SET-2; SET-2, text statement, read-out: potency in cell viability assay) was over 6.00, the pIC50 (CSNK2A1 (CK2 alpha 1)) was over 6.52 and the Body weight (MV-4-11 xenograft) was “didn't suffer from weight loss”. For the same molecule, the “Tumor volume vs control group” value (MV-4-11 xenograft; last measurement point) was “only about half the size of tumors from the control group”, the pIC50 (CDK8/cyclinC) was over 6.52 and the “level of p-STAT1(Ser727), p-STAT3(Tyr705), p-STAT5(Ser726) and YAP” value [2] was “down regulate”.
